Laboratory results from patent US9884854B2, “N-[(pyrimidinylamino)propanyl]-and N[(pyrazinylamino)proppanyl]arylcarboxamides” (Boehringer Ingelheim International GmbH, priority 2016, dated 2018).

Assays:
[1] = Assay C: metabolic stability in human liver microsomes (Human MST); assay type: in vitro ADME; details: pooled human liver microsomes, pH 7.6, 1 μM compound, 37° C., read-out: Human MST t1/2
From the text: Stability in human liver microsomes refers to the susceptibility of compounds to biotransformation in the context of selecting and/or designing drugs with favorable pharmacokinetic properties. The primary site of metabolism for many drugs is the liver. Human liver microsomes contain the cytochrome P450s (CYPs), and thus represent a model system for studying drug metabolization in vitro. Enhanced stability in human liver microsomes is associated with several advantages, including increased bioavailability and longer half-life, which can enable lower and less frequent dosing of patients. Thus, enhanced stability in human liver microsomes is a favorable characteristic for compounds that are to be used for drugs.
C. Assessment of Metabolic Stability in Human Liver Microsomes (Human MST)
The metabolic stability of the compounds according to the invention may be investigated as follows:
The metabolic degradation of the test compound is assayed at 37° C. with pooled human liver microsomes. The final incubation volume of 100 μL per time point contains TRIS buffer pH 7.6 at room temperature (0.1 M), MgCl2 (5 mM), microsomal protein (1 mg/mL) and the test compound at a final concentration of 1 μM. Following a short pre-incubation period at 37° C., the reactions are initiated by addition of beta-nicotinamide adenine dinucleotide phosphate, reduced form (NADPH, 1 mM), and terminated by transferring an aliquot into solvent after different time points. After centrifugation (10000 g, 5 min), an aliquot of the supernatant is assayed by LC-MS/MS for the amount of parent compound. The half-life (t1/2) is determined by the slope of the semi-logarithmic plot of the concentration-time profile.

[2] = target: T1, human Orexin 1 receptor (Homo sapiens, UniProt O43613); test: Assay A: OX1R IP1 (in vitro OX1R potency); assay type: cell-based; details: for Kb: 50 nM Orexin A concentration
T1 construct: stably expressing the full-length human Orexin 1 receptor and the aequorin photoprotein; expressed in transfected cells; host or cells: CHO-K1 (CHO-K1/hOx1), co-expressing aequorin
T1 sequence (O43613 1-425): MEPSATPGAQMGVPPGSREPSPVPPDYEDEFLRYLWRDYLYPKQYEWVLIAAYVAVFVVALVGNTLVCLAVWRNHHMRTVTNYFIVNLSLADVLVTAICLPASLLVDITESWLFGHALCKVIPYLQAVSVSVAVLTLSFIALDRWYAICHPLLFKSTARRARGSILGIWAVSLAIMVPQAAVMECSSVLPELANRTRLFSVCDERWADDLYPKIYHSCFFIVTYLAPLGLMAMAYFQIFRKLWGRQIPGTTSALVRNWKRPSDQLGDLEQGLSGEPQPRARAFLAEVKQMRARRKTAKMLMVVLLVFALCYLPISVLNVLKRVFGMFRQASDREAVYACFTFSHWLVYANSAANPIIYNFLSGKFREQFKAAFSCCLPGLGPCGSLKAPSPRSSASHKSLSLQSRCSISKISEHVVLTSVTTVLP
From the text: Activation of the orexin receptors expressed in cell lines results in an increase in intracellular IP3 concentration. IP1, a downstream metabolite of IP3, accumulates in cells following receptor activation and is stable in the presence of LiCl. Using Homogeneous Time-Resolved Fluorescence technology with Lumi4-Tb cryptate (commercially available from Cisbio Bioassay.) and a suitable fluorescence plate reader. […] This technique is used to characterize pharmacological modification of the orexin receptors.
A. In Vitro Testing of OX1R Potency: OX1R IP1
IP1 measurements are performed in CHO-K1 cells stably expressing the full-length human Orexin 1 receptor and the aequorin photoprotein. Cells are cultivated in Ham's nutrient mixture F12 medium with 10% fetal calf serum, in a 37° C., 95% humidity and 5% CO2 incubator. The CHO-K1/hOx1 cell mass is expanded to larger cell numbers. The cells are obtained as frozen cells in cryo-vials and stored until use at −150° C. […] In preparation for the assay, 24 hours before the assay, the cells are thawed at 37° C. and immediately diluted with cell culture medium. After centrifugation, the cell pellet is re-suspended in medium and then distributed into the assay plates with a density of 10000 cells/25 μL per well. The plates are incubated for one hour at room temperature to reduce edge effects before they are incubated for 24 hours at 37° C./5% CO2. Compounds are prepared by an 8-point serial dilution in DMSO and a final dilution step into assay buffer (HBSS with 20 mM HEPES, 0.1% BSA and 50 mM LiCl, pH 7.4) to ensure a final DMSO concentration of 1% in the assay.
On the day of the assay, cells in the plate are washed twice with 60 μL assay buffer (20 μL buffer remained in the wells after washing), followed by adding 5 μL per well of compounds diluted in assay buffer. After 15 minutes of incubation at room temperature 5 μL per well of Orexin A peptide (final concentration: 0.5 nM, and/or 50 nM) dissolved in assay buffer is added to the assay plate. The assay plate is incubated for 60 minutes at 37° C. Then 5 μl per well of Anti-IP1-Cryptate Tb solution and 5 μl per well of IP1-d2 dilution are added and the plate is incubated for a further 60 minutes light protected at room temperature. […] 8-point four parametric non-linear curve fitting and determination of IC50 values and Hill slopes is performed using a regular analysis software e.g. AssayExplorer (Accelrys).
Kb values from Assay A (OX1R) and Assay B (OX2R) can then provide a selectivity ratio which is independent of the agonist (Orexin A) concentration.

SMILES | half-life at 1 μM [1] | OX2R Kb/OX1R Kb [2] | Kb [2] | higher potency ([2]; versus Example 46 in WO2016/034882) | higher potency ([2]; versus Example 73 in WO2016/034882)
CCN(C(=O)c1ccccc1-n1nccn1)[C@@H](C)CNc1ncc(C(F)(F)F)cn1 [Example 1] | 2 h | 404 | 48 pM | – | –
CCN(C(=O)c1nc(C)ccc1-n1nccn1)[C@@H](C)CNc1ncc(C(F)(F)F)cn1 [Example 9] | 1.67 h | 310 | 106 pM | > 10 fold | approximately 3 fold
CCN(C(=O)c1cnc(C)nc1-c1ccccc1)[C@@H](C)CNc1ncc(C(F)(F)F)cn1 [Example 17] | > 2 h | 2500 | 21.6 pM | – | –
CCN(C(=O)c1cccc(F)c1-n1nccn1)[C@@H](C)CNc1ncc(C(F)(F)F)cn1 [Example 18] | > 2 h | 352 | 51.2 pM | – | –
